Measurements published in paper PMC8778670, “Identification of an Orally Bioavailable, Brain-Penetrant Compound with Selectivity for the Cannabinoid Type 2 Receptor” (Molecules, 2022).

Experiments:
[1] = target: T1, human CB2 receptors (Homo sapiens, UniProt P34972); assay: Cannabinoid receptor [3H]CP-55,940 displacement binding assay, CB2; settings: for inhibition at 10 µM: 1 h, 10 µM compound, CHO cell membranes, 2.5 nM radioligand, read-out: Displacement of [3H]CP-55,940 from CB2; for displacement of [3H]CP-55,940 in the competitive radioligand screen: 10 µM, receptor (CB1 or CB2) not given
T1 construct: expressed in transfected cells; host or cells: CHO cells
Procedure: (§1) The affinities of the compounds for CB1 and CB2 receptors were examined using displacement assays, as previously described. Briefly, cell membranes from CHO cells expressing human CB1 or human CB2 receptors were isolated using differential centrifugation. Test compounds reconstituted in DMSO and were incubated with the isolated membrane in binding buffer (50 mM Tris-HCl, 1 mM EDTA, 3 mM MgCl2, 5 mg/mL BSA, pH 7.4) along with 2.5 nM [^3H]CP-55,940. Total binding was assessed in the presence of equal concentration of DMSO, while non-specific binding was determined in the presence of 10 μM CP-55,940, and background binding was determined in wells lacking membrane. Following incubation at 30 °C for 60 min, the binding reactions were terminated by vacuum filtration through Whatman GF/C filters. The filters were then washed twice with ice-cold buffer (50 mM Tris-HCl, 1 mg/mL BSA). Liquid scintillation cocktail was added to each well and the total tritiated counts per minute were analyzed using a TopCount scintillation counter. Background counts were subtracted from all wells and the percent displacement from total binding was calculated.
(§2) The compounds were initially screened at 10 μM concentrations. If they produced at least ±30% displacement of the radioligand, then full competition curves were constructed. Ki values were calculated using GraphPad Prism (San Diego, CA, USA) and Kd values determined using a 1 site fit. All assays were run in technical and biological replicates so that the n = 5–6.

[2] = target: T2, human CB1 receptors (Homo sapiens, UniProt P21554); assay: Cannabinoid receptor [3H]CP-55,940 displacement binding assay, CB1; settings: 1 h; 10 µM compound; CHO cell membranes, 2.5 nM radioligand; read-out: Displacement of [3H]CP-55,940 from CB1
T2 construct: expressed in transfected cells; host or cells: CHO cells
Procedure: as §1, §2

T2 sequence (P21554 whole entry): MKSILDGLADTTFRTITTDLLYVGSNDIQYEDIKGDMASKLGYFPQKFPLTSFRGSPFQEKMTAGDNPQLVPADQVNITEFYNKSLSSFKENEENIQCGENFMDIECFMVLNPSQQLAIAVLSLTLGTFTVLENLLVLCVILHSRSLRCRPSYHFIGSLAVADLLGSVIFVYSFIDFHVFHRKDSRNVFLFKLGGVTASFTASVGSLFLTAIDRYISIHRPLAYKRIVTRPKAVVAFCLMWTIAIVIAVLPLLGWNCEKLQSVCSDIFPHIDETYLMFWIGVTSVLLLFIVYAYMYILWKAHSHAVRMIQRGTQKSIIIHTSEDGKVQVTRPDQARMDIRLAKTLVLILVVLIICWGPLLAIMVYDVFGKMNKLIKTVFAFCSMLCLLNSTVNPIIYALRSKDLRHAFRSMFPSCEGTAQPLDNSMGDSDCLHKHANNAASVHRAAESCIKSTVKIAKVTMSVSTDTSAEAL
T1 sequence (P34972 whole entry): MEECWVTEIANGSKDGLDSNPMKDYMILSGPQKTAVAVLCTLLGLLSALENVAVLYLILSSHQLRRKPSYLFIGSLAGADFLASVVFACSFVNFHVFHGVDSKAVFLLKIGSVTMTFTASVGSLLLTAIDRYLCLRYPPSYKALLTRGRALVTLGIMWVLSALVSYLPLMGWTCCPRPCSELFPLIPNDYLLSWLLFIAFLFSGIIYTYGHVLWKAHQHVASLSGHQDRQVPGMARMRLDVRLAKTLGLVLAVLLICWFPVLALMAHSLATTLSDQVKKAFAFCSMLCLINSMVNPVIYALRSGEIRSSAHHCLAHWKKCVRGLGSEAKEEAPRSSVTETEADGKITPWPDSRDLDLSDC

inhibition at 10 µM [1] [%]	inhibition at 10 µM [2] [%]	displacement of [3H]CP-55,940 in the competitive radioligand screen [1]	Ki ([1]; CB2, full competition curves vs [3H]CP-55,940) [nM]	Structure (SMILES)
19.9	21.9			Cc1ncsc1/C=N/N=C1/Nc2ccccc2C(=O)N2CCC[C@@H]12 [Compound 4e]
95.6	55.3	more than 60%	137	O=C1c2ccccc2N/C(=N/N=C/C23CC4CC(CC(C4)C2)C3)[C@@H]2CCCN12 [Compound 4q]
-33.6	-28			Cc1ncc(/C=N/N=C2/Nc3ccccc3C(=O)N3CCC[C@@H]23)s1 [Compound 4d]
61	36.9	more than 60%		O=C1c2ccccc2N/C(=N/N=C/c2cc3ccccc3s2)[C@@H]2CCCN12 [Compound 4h, (S,E)-11-[2-(Benzo[b]thiophenylmethylene)hydrazono]-pyrrolo[2,1-c][1,4] Benzodiazepine]
1.01	5.09			Cn1cc(/C=N/N=C2/Nc3ccccc3C(=O)N3CCC[C@@H]23)c2ccccc21 [Compound 4o]
29.3	24.2			O=C1c2ccccc2N/C(=N/N=C/c2sc(Cl)nc2Cl)[C@@H]2CCCN12 [Compound 4g]
3.72	1.75			Nc1ncc(/C=N/N=C2/Nc3ccccc3C(=O)N3CCC[C@@H]23)s1 [Compound 4f]
-14.5	-14			Cn1ccnc1/C=N/N=C1/Nc2ccccc2C(=O)N2CCC[C@@H]12 [Compound 4b]
36.4	49.8			O=C1c2cc(Br)ccc2N/C(=N/N=C/c2cc3ccccc3s2)[C@@H]2CCCN12 [Compound 4i, (S,E)-11-[(Benzo[b]thiophen-2-ylmethylene)hydrazono]-7-bromo-pyrrolo[2,1-c][1,4] Benzodiazepine]
51.7	77.2			Cc1c(/C=N/N=C2/Nc3ccccc3C(=O)N3CCC[C@@H]23)sc2ccccc12 [Compound 4l]
50	5.22			O=C1c2ccccc2N/C(=N/N=C/c2sc3ccccc3c2Cl)[C@@H]2CCCN12 [Compound 4m]
65.2	66.8			O=C1c2cc(Br)ccc2N/C(=N/N=C/c2csc3ccccc23)[C@@H]2CCCN12 [Compound 4j]
-12.5	-3.09			O=C1c2ccccc2N/C(=N/N=C/c2ccc[nH]2)[C@@H]2CCCN12 [Compound 4a]
3.06	0.25			O=C1c2ccccc2N/C(=N/N=C/c2cncs2)[C@@H]2CCCN12 [Compound 4c, (S,E)-11-[(Thiazol-5-ylmethylene)hydrazono]-pyrrolo[2,1-c][1,4] Benzodiazepine]
43.3	44.1			O=C1c2ccccc2N/C(=N/N=C/c2nc3ccccc3s2)[C@@H]2CCCN12 [Compound 4n, (S,E)-11-[(Benzo[d]thiazol-2-ylmethylene)hydrazono]-pyrrolo[2,1-c][1,4] Benzodiazepine]
